Experimental findings from ChEMBL document CHEMBL3616411, “Discovery of 1-hydroxypyridine-2-thiones as selective histone deacetylase inhibitors and their potential application for treating leukemia” (Bioorg Med Chem Lett, 2015) are described below.

A short description of data set [1]: Cytotoxicity against HEK293 cells assessed as reduction in cell viability. Type of data set: cell-based. As to conditions: human.
The next data set concerns the target T1, Histone deacetylase 8 (Homo sapiens, UniProt Q9BY41).
T1 sequence (Q9BY41 whole entry): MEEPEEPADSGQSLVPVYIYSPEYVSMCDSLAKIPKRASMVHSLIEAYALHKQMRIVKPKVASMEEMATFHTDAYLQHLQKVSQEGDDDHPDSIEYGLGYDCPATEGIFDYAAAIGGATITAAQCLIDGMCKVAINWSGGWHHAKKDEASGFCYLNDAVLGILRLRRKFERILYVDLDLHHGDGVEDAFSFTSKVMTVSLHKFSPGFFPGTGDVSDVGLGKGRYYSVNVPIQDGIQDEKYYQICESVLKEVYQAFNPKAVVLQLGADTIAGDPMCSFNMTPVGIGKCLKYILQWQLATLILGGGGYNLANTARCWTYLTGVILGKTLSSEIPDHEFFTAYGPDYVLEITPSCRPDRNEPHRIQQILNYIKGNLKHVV
In words: Inhibition of HDAC8 (unknown origin) using RHK(Ac)K(Ac) fluorogenic acetylated peptide substrate by fluorometric assay.

Another data set has as its target Histone deacetylase 4 (Homo sapiens, UniProt P56524). In words: Inhibition of HDAC4 (unknown origin) using Boc-Lys(trifluoroacetyl)-AMC fluorogenic acetylated peptide substrate by fluorometric assay.
A further data set deals with Histone deacetylase 2 (Homo sapiens, UniProt Q92769).
The next data set concerns U-937. The data set can be described thus: cells. Type of data set: functional, cell-based. As to conditions: Homo sapiens.
The next data set relates to K562. In words: cells. The class given is functional, cell-based. The following applies: Homo sapiens.
A further data set addresses Histone deacetylase 9 (Homo sapiens, UniProt Q9UKV0). In words: Inhibition of HDAC9 (unknown origin) using Boc-Lys(trifluoroacetyl)-AMC fluorogenic acetylated peptide substrate by fluorometric assay.
Data set [2] deals with T2, Protein deacetylase HDAC6 (Homo sapiens, UniProt Q9UBN7).
T2 sequence (Q9UBN7 whole entry): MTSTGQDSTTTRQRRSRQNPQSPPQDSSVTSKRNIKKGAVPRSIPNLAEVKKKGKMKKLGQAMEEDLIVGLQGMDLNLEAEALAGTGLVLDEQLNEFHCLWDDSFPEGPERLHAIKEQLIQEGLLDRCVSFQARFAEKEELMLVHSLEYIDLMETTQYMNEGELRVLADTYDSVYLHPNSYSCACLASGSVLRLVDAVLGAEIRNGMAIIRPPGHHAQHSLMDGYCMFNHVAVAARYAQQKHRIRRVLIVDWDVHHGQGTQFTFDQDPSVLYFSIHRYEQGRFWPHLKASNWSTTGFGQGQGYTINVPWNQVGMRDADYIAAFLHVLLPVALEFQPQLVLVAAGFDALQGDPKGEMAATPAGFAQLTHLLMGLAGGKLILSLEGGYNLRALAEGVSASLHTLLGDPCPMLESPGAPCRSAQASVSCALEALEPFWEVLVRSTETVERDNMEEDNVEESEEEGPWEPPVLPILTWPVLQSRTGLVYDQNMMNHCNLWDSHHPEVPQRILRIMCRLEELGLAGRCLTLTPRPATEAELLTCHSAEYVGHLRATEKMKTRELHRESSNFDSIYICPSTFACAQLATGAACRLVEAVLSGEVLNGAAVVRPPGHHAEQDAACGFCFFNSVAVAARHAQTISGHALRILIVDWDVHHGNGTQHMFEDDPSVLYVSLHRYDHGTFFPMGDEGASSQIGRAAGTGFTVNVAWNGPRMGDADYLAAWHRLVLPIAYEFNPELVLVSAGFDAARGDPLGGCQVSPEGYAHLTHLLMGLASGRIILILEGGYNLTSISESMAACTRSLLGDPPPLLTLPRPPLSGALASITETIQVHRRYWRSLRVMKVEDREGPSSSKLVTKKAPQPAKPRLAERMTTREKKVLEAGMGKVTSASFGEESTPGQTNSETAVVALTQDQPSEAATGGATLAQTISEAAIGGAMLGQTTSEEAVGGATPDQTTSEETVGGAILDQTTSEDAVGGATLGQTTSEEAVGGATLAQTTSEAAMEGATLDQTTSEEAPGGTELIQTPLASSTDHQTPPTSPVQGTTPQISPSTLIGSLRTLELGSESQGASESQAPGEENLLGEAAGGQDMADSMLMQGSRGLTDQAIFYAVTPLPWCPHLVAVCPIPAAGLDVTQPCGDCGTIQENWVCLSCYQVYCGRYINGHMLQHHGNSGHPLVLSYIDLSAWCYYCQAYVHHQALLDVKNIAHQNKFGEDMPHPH
In words: Inhibition of HDAC6 (unknown origin) using RHKK(Ac) fluorogenic acetylated peptide substrate by fluorometric assay.

In a further data set the test system is THP-1. The data set can be described thus: cells. Type of data set: functional, cell-based. The following applies: Homo sapiens.
Another data set in a line: cells. Type of data set: functional, cell-based. As to conditions: Homo sapiens, IR-K562.
The target in a further data set is Histone deacetylase 1 (Homo sapiens, UniProt Q13547). The data set can be described thus: Inhibition of HDAC1 (unknown origin) using RHKK(Ac) fluorogenic acetylated peptide substrate by fluorometric assay.
In another data set the target is Histone deacetylase 5 (Homo sapiens, UniProt Q9UQL6). The data set can be described thus: Inhibition of HDAC5 (unknown origin) using Boc-Lys(trifluoroacetyl)-AMC fluorogenic acetylated peptide substrate by fluorometric assay.
Data set [3] is described as follows: in vitro. The following applies: human, HEK293 cells (CC50) versus U937 cells (IC50).
The nature of data set [4]: in vitro. The following applies: human, HEK293 cells (CC50) versus K562 cells (IC50).
Data set [5] can be described thus: in vitro. The following applies: human, HEK293 cells (CC50) versus THP1 cells (IC50).
Data set [6] in a line: in vitro. The following applies: human.
The nature of data set [7]: Cytotoxicity against imatinib resistant human IR-K562 cells assessed as cell viability at 250 nM incubated for 1 day (reference value: 73.9%). The class given is functional. As to conditions: IR-K562, 24 h, read-out: Activity.
Data set [8] can be described thus: Cytotoxicity against imatinib resistant human IR-K562 cells assessed as cell viability at 250 nM incubated for 5 days (reference value: 86.7%). The class given is functional. The following applies: IR-K562, 120 h, read-out: Activity.
The nature of data set [9]: Cytotoxicity against imatinib resistant human IR-K562 cells assessed as cell viability at 250 nM incubated for 8 days (reference value: 89.4%). As to conditions: IR-K562, 192 h, read-out: Activity. The class given is functional.
Data set [10] can be described thus: Cytotoxicity against imatinib resistant human IR-K562 cells assessed as cell viability at 250 nM incubated for 3 days (reference value: 79.5%). The class given is functional. As to conditions: IR-K562, 72 h, read-out: Activity.

One may read the CC50 as the concentration that lowers cell viability or growth by half. For orientation: IC50 means the concentration at which inhibition is half-maximal. A high value points to weaker potency.

Chain of Histone deacetylase 1 (Q13547 whole entry): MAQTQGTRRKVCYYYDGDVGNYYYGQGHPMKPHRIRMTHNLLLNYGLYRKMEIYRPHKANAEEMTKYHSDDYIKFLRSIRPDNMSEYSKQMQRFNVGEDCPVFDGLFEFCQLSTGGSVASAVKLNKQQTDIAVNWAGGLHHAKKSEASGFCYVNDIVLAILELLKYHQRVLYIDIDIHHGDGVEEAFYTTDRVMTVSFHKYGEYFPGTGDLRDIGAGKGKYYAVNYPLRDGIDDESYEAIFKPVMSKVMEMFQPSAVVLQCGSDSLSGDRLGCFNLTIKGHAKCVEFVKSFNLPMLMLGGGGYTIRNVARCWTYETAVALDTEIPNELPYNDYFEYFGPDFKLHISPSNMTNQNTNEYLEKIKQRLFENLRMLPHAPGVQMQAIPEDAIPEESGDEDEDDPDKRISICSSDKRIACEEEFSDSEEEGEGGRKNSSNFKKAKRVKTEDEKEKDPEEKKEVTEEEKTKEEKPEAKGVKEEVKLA
Chain of Histone deacetylase 4 (P56524 whole entry): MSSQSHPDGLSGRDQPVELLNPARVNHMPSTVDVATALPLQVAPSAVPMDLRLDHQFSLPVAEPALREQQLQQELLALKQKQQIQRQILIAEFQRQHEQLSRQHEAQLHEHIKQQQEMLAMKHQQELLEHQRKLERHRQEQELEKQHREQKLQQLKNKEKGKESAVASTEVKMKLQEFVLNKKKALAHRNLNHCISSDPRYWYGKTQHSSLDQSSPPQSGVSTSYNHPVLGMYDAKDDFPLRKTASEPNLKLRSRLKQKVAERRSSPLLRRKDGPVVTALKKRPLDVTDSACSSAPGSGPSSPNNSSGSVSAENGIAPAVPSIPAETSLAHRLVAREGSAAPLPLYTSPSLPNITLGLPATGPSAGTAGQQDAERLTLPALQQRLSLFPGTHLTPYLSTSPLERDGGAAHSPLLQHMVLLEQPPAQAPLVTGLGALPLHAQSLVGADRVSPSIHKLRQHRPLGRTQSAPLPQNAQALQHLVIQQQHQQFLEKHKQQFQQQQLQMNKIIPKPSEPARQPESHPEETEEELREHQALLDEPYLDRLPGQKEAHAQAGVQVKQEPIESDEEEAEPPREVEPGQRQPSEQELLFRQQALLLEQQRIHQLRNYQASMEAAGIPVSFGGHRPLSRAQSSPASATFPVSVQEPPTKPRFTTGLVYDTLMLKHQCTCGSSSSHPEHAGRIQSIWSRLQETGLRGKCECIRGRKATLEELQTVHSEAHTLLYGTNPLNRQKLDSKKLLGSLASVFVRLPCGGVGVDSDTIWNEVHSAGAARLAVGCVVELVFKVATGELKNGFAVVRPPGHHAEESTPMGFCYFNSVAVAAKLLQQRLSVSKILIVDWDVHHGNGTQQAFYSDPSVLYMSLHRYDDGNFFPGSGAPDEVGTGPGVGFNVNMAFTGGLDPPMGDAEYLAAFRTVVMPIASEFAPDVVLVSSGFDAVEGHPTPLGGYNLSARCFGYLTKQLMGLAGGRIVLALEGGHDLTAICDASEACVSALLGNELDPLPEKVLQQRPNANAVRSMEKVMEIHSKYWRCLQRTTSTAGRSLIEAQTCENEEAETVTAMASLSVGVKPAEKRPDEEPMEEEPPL
Chain of Histone deacetylase 9 (Q9UKV0 whole entry): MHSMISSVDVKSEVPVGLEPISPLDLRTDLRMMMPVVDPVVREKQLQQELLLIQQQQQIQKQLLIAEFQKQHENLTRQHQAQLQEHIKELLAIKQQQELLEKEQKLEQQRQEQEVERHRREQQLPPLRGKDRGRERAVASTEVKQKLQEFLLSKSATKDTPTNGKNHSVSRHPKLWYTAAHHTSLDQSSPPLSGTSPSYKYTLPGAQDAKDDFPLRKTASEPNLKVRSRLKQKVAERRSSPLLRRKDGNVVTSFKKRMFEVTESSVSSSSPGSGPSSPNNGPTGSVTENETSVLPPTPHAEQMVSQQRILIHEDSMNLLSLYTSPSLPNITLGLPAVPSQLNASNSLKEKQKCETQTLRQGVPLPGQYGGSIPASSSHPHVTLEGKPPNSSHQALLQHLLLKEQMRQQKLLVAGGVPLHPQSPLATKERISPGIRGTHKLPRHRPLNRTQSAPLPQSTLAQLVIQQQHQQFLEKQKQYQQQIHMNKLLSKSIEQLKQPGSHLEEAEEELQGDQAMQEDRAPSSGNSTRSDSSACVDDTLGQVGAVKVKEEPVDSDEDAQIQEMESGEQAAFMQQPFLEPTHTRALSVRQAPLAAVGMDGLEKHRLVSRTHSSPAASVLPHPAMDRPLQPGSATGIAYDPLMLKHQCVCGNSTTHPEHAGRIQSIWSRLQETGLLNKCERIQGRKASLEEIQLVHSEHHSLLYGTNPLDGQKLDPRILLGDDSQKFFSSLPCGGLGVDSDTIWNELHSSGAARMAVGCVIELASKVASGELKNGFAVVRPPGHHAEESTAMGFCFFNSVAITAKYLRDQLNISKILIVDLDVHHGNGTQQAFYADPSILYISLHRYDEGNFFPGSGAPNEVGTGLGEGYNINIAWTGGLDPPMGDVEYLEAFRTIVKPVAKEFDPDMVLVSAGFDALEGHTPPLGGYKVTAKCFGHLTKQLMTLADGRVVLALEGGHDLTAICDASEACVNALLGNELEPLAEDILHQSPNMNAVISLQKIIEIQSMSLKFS
Chain of Histone deacetylase 2 (Q92769 whole entry): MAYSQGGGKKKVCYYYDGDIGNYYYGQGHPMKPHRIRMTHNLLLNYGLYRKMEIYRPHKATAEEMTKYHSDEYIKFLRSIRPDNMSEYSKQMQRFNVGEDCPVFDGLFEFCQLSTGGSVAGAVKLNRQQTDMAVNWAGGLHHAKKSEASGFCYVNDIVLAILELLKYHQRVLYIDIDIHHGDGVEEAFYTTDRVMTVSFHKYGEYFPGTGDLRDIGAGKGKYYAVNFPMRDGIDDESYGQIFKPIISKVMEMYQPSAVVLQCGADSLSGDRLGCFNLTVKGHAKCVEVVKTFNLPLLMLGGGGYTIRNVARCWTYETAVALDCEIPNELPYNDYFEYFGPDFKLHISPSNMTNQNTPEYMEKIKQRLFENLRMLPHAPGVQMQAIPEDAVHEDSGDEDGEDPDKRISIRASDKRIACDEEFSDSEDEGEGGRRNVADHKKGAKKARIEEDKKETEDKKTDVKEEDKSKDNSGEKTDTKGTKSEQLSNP
Chain of Histone deacetylase 5 (Q9UQL6 whole entry): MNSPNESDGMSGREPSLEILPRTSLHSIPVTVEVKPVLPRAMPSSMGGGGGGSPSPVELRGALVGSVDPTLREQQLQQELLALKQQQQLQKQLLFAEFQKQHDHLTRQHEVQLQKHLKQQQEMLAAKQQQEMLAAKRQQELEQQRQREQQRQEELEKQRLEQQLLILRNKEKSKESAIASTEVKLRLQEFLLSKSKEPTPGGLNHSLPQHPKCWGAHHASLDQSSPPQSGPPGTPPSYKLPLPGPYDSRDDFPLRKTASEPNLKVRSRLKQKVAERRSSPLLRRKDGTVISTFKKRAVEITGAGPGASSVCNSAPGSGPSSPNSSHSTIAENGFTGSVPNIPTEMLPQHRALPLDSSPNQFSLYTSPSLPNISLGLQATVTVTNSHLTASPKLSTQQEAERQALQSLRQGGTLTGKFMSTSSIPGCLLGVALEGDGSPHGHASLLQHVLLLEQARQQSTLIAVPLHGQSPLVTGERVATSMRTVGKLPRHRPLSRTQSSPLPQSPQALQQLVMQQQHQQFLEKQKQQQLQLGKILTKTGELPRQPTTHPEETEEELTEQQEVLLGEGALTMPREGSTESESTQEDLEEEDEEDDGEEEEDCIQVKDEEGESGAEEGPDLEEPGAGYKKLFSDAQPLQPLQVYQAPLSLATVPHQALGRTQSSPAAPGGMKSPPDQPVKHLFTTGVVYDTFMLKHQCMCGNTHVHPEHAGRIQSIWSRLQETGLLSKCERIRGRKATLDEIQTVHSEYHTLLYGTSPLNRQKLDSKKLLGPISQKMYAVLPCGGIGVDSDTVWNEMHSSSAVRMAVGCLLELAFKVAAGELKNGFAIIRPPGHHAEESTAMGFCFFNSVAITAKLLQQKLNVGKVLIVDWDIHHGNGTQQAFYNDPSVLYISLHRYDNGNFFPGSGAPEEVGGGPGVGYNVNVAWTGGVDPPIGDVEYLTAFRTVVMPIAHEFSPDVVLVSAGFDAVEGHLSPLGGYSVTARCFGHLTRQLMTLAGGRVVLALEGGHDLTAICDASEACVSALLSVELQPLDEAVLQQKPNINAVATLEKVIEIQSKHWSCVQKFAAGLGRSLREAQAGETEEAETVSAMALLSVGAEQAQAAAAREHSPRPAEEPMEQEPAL

`O=C(CCCCCCC(=O)Nc1ccccc1)NO` [VORINOSTAT]: the CC50 in data set [1] amounted to 100 µM.

As to `O=C(O)c1cccc(=S)n1O`, the IC50 at Histone deacetylase 8 came to 3.3 µM; at Histone deacetylase 4, 71 µM; against Histone deacetylase 2, 710 µM; with U-937 it was 75 µM; in the data set with K562, 18 µM; against Histone deacetylase 9 it was 47 µM. The IC50 in data set [2] was 0.15 µM; with THP-1 it was 25 µM; in “cells”, 52 µM; on Histone deacetylase 1 it was 43 µM; against Histone deacetylase 5, 35 µM. Besides, the 50% cytotoxic concentration (CC50) in data set [1] was 97 µM.

As for `Cc1nc(Nc2ncc(C(=O)Nc3c(C)cccc3Cl)s2)cc(N2CCN(CCO)CC2)n1` [DASATINIB], the selectivity ratio in “in vitro [3]” was below 0.1; in “in vitro [4]” it was 200; in “in vitro [5]” it was 2.6; in “in vitro [6]” it was 8.4. Also, the IC50 with K562 is 0.08 µM; in the data set with THP-1, 6 µM; in the data set “cells”, 1.9 µM. In addition, in data set [1], the CC50 was 16 µM.

For the compound `C[C@@H](NC(=O)c1cccc(=S)n1O)C(=O)O`, the IC50 at Histone deacetylase 8 turned out to be 0.98 µM; on Histone deacetylase 4 it was 100 µM; against Histone deacetylase 2, 400 µM; with U-937, 25 µM; in the data set on K562, 3.7 µM; at Histone deacetylase 9, 58 µM. Besides, the IC50 in data set [2] was determined as 4.2 µM; with THP-1, 2.2 µM; in “cells”, 18 µM; at Histone deacetylase 1, 270 µM; against Histone deacetylase 5, 37 µM.

For the compound `Cc1ccc(NC(=O)c2ccc(CN3CCN(C)CC3)cc2)cc1Nc1nccc(-c2cccnc2)n1` [IMATINIB], the viability at […] was found to be 47% in data set [7], 65.1% in data set [8], 71.1% in data set [9] and 58.7% in [10]. In addition, the selectivity ratio in the data set “in vitro [3]” worked out at 0.44; in “in vitro [4]” it was 140; in “in vitro [5]”, 0.34; in the data set “in vitro [6]”, 7.6. In addition, the IC50 in the data set on U-937 amounted to 19 µM; in the data set on K562 it was 0.06 µM; in the data set on THP-1 it was 25 µM; in the data set “cells”, 1.1 µM. Further, the CC50 in [1] came to 8.4 µM.

For the compound `O=C(N[C@@H](C(=O)O)c1ccccc1)c1cccc(=S)n1O`, the IC50 on Histone deacetylase 8 was found to be 1.2 µM; against Histone deacetylase 4, 64 µM; on Histone deacetylase 2, 95 µM; with U-937, 57 µM; with K562, 8.7 µM; against Histone deacetylase 9, 34 µM. Also, the IC50 worked out at 8.8 µM in data set [2]; 6.4 µM in the data set with THP-1; 24 µM in “cells”; 93 µM on Histone deacetylase 1; 27 µM at Histone deacetylase 5. In addition, in [1], the CC50 amounted to 76 µM.
